Data published in patent publication US20190336489A1, “NON PEPTIDE HETEROBIVALENT MOLECULES FOR TREATING INFLAMMATORY DISEASES” (GLAXOSMITHKLINE INTELLECTUAL PROPERTY DEVELOPMENT LIMITED, priority 2017, published 2019).
Marks after values point to notes of the source that are not given here.

Assays:
Format in all cases: cell-based
CCR1 = molecular target: T1, CCR1 (Homo sapiens, UniProt P32246); experiment: Antibody Dependent Cellular Cytotoxicity (ADCC) reporter assay, CCR1 target cells; settings: CHOK1 cells overexpressing CCR1; for EC50: Jurkat FcgRIIIa NFAT-luciferase reporter cells, EC50 class, read-out: ADCC potency; for ADCC efficacy: maximum signal:background (S/B)
T1 construct: expressed in transfected cells; host or cells: CHOK1
T1 sequence (P32246 1-355): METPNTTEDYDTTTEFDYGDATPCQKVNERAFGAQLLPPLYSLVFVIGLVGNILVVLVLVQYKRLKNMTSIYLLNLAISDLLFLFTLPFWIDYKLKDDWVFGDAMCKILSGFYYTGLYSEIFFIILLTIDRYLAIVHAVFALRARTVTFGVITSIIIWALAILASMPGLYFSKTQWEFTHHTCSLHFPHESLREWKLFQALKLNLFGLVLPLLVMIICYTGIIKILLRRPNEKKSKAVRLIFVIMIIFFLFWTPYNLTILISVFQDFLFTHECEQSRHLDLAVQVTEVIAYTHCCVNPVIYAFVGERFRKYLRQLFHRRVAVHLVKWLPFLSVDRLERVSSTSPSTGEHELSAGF
Text: (§1) The compounds described herein have been characterized in an ADCC reporter assay (see Section 1.2 ADCC reporter for protocol). […] Furthermore, the assay also confirms that this formed complex can engage and activate the Fc receptors on immune cells. Lastly, the assay provides both potency (EC50) and efficacy (signal to background ratio) for each compound in a dose dependant manner.
(§2) This assay has four components • 1) Heterobivalent Compound consisting of a targeting ligand and a hapten connected by a linker (ranging from 10 uM-1 pM) • 2) A hapten antibody with functional Fc domain (typical concentrations are 0.01 ug/mL-200 ug/mL) • 3) Target cells—CHOK1 cells engineered to overexpress either CCR1, CCR2, or CCR3, or CEMNKR cells engineered to overexpress CCR5 (typically 1000-20,000 cells per well) • 4) Reporter cells—Jurkat cells engineered to express FcgRIIIa (ADCC reporter assay) and with a reporter gene (luciferase) under the control of the NFAT promoter (typically 3000-75,000 cells per well)
(§3) Reagents are combined in final volume of 20 uL in 384-well tissue culture treated plated.
(§4) All components are incubated together for ˜12-18 hours. Add BioGlo Detection reagent (from Promega) to lyse the cells and provide substrate for the luciferase reporter protein. Signal is measured on a microplate reader capable of measuring luminescence. Signal:Background is calculated by dividing the signal of a test well by the signal obtained when no compound is included in the assay. EC50 calculations were done using Graphpad Prism Software, specifically a nonlinear regression curve fit (Y=Bottom+(Top−Bottom)/(1+10^((Log EC50−X)*HillSlope)))

CCR3 = molecular target: T2, CCR3 (Homo sapiens, UniProt P51677); experiment: Antibody Dependent Cellular Cytotoxicity (ADCC) reporter assay, CCR3 target cells; settings: for EC50 / ADCC efficacy: CHOK1 cells overexpressing CCR3; for EC50: Jurkat FcgRIIIa NFAT-luciferase reporter cells, EC50 class, read-out: ADCC potency; for ADCC efficacy: maximum signal:background (S/B)
T2 construct: expressed in transfected cells; host or cells: CHOK1
T2 sequence (P51677 1-355): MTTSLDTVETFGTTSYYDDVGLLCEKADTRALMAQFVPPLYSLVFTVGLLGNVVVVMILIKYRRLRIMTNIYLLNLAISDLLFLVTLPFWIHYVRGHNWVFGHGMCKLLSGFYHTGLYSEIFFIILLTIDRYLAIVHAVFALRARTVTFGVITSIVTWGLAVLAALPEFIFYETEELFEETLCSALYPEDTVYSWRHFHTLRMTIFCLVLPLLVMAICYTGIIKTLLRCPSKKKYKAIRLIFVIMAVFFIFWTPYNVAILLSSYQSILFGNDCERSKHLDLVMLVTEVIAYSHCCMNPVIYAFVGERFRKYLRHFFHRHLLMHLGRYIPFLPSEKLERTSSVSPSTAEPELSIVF
Text: as §1, §2, §3, §4

CCR5 = molecular target: T3, CCR5 (Homo sapiens, UniProt P51681); experiment: Antibody Dependent Cellular Cytotoxicity (ADCC) reporter assay, CCR5 target cells; settings: CEMNKR cells overexpressing CCR5
T3 construct: expressed in transfected cells; host or cells: CEMNKR
Text: as §1, §2, §3
All components are incubated together for ˜12-18 hours. […] Signal is measured on a microplate reader capable of measuring luminescence. Signal:Background is calculated by dividing the signal of a test well by the signal obtained when no compound is included in the assay. […]

CCR2 = molecular target: T4, CCR2 (Homo sapiens, UniProt P41597); experiment: Antibody Dependent Cellular Cytotoxicity (ADCC) reporter assay, CCR2 target cells; settings: CHOK1 cells overexpressing CCR2
T4 construct: expressed in transfected cells; host or cells: CHOK1
Text: as §1, §2, §3, §4

[1] = Jurkat FcgRIIIa NFAT-luciferase reporter cells, EC50 class, read-out: ADCC potency
[2] = maximum signal:background (S/B)

T3 sequence (P51681 whole entry): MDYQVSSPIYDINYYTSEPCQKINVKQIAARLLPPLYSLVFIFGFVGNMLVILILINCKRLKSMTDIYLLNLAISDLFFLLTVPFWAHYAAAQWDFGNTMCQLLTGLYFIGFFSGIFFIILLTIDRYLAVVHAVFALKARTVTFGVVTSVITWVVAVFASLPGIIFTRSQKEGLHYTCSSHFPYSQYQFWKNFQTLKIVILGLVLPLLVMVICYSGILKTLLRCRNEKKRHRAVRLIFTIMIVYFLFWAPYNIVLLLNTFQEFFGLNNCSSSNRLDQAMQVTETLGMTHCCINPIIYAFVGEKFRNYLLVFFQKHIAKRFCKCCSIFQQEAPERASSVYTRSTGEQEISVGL
T4 sequence (P41597 whole entry, species assumed): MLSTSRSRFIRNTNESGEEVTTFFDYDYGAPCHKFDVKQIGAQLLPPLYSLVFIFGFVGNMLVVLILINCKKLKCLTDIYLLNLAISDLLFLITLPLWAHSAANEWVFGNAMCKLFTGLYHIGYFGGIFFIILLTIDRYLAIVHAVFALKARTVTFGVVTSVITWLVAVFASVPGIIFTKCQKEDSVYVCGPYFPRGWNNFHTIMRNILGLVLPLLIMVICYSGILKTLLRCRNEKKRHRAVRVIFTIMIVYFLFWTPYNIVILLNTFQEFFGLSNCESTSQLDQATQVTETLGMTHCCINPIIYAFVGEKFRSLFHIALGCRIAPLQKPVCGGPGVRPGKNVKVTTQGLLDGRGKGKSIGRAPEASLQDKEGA

**Q.** `CC(C)[C@@H](NC(=O)c1cccc(C(=O)NCCOCCOCCOCCOCCOCCOCCOCCOCCOCCOCCOCCNC(=O)CCCC[C@@H]2SC[C@@H]3NC(=O)N[C@@H]32)c1)C(=O)N1CCC(c2ccc(Cl)cc2)CC1` [Compound 1, N1-((R)-1-(4-(4-chlorophenyl)piperidin-1-yl)-3-methyl-1-oxobutan-2-yl)-N3-(37-oxo-41-((3aS,4S,6aR)-2-oxohexahydro-1H-thieno[3,4-d]imidazol-4-yl)-3,6,9,12,15,18,21,24,27,30,33-undecaoxa-36-azahentetracontyl)isophthalamide] was tested. Which EC50 (CCR1) did it give?
**A.** 10 to 100 nM

**Q.** What about the ADCC efficacy (CCR1) of the same compound?
**A.** +++^d (maximum signal:background > 11 = +++)

**Q.** With `O=C(NCc1ccc(C(=O)NCCCOCCOCCOCCCNC(=S)Nc2ccc(-c3c4ccc(=O)cc-4oc4cc(O)ccc34)c(C(=O)O)c2)cc1)NC[C@H]1CN(Cc2ccc(Cl)c(Cl)c2)CCO1` [Compound 22, (S)-5-(3-(1-(4-((3-((4-(3,4-Dichlorobenzyl)morpholin-2-yl)methyl)ureido)methyl)phenyl)-1-oxo-6,9,12-trioxa-2-azapentadecan-15-yl)thioureido)-2-(6-hydroxy-3-oxo-3H-xanthen-9-yl)benzoic acid] as the compound, how does the EC50 (CCR3) read?
**A.** 1 to 10 nM

**Q.** What about the ADCC efficacy (CCR3) of the same compound?
**A.** +++^f (Maximum S:B > 20 = +++)

**Q.** Which results are given for `O=C(CCC(=O)N[C@H]1CC[C@H](NC(=O)c2ccc(CNC(=O)NC[C@H]3CN(Cc4ccc(Cl)c(Cl)c4)CCO3)cc2)CC1)NCCCOCCOCCOCCCNc1ccc([N+](=O)[O-])cc1[N+](=O)[O-]` [Compound 23, N1-((Trans)-4-(4-((3-(((S)-4-(3,4-Dichlorobenzyl)morpholin-2-yl)methyl)ureido)methyl)benzamido)cyclohexyl)-N4-(3-(2-(2-(3-((2,4-dinitrophenyl)amino)propoxy)ethoxy)ethoxy)propyl)succinamide]?
**A.** EC50 (CCR3): < 1 nM; ADCC efficacy (CCR3): +++^f (Maximum S:B > 20 = +++)

**Q.** How did the EC50 (CCR3) turn out when `O=C(NCc1ccc(C(=O)NCCOCCOCCOCCOCCOCCOCCOCCOCCOCCNc2ccc([N+](=O)[O-])cc2[N+](=O)[O-])cc1)NC[C@H]1CN(Cc2ccc(Cl)c(Cl)c2)CCO1` [Compound 20, (S)-4-((3-((4-(3,4-dichlorobenzyl)morpholin-2-yl)methyl)ureido)methyl)-N-(29-((2,4-dinitrophenyl)amino)-3,6,9,12,15,18,21,24,27-nonaoxanonacosyl)benzamide] was run?
**A.** < 1 nM

**Q.** What about the ADCC efficacy (CCR3) of the same compound?
**A.** +++^f (Maximum S:B > 20 = +++)

**Q.** What about the EC50 (CCR5; [1]) of the same compound?
**A.** < 1 nM

**Q.** What about the ADCC efficacy (CCR5; [2]) of the same compound?
**A.** +++^g (Maximum Signal:Background > 70 = +++)

**Q.** How did the EC50 (CCR3) turn out when `O=C(NCc1ccc(C(=O)NCCCOCCOCCOCCCNc2ccc([N+](=O)[O-])cc2[N+](=O)[O-])cc1)NC[C@@H]1CN(Cc2ccc(Cl)c(Cl)c2)CCO1` [Compound 21, (R)-4-((3-((4-(3,4-dichlorobenzyl)morpholin-2-yl)methyl)ureido)methyl)-N-(3-(2-(2-(3-((2,4-dinitrophenyl)amino)propoxy)ethoxy)ethoxy)propyl)benzamide] was run?
**A.** < 1 nM

**Q.** What about the ADCC efficacy (CCR3) of the same compound?
**A.** +++^f (Maximum S:B > 20 = +++)

**Q.** For `CC(C)[C@@H](NC(=O)c1cccc(C(=O)NCCOCCOCCOCCOCCOCCOCCOCCOCCC(=O)NCCOCCOCCOCCOCCOCCOCCOCCOCCOCCOCCOCCNC(=O)CCCC[C@@H]2SC[C@@H]3NC(=O)N[C@@H]32)c1)C(=O)N1CCC(c2ccc(Cl)cc2)CC1` [Compound 5, N1-((R)-1-(4-(4-chlorophenyl)piperidin-1-yl)-3-methyl-1-oxobutan-2-yl)-N3-(27,65-dioxo-69-((3aS,4S,6aR)-2-oxohexahydro-1H-thieno[3,4-d]imidazol-4-yl)-3,6,9,12,15,18,21,24,31,34, 37,40,43,46,49,52,55,58,61-nonadecaoxa-28,64-diazanonahexacontyl)isophthalamide], which EC50 (CCR1) is on record?
**A.** 100 to 1000 nM

**Q.** What about the ADCC efficacy (CCR1) of the same compound?
**A.** +^d (between 6-8 = +)

**Q.** With `CC(C)[C@@H](NC(=O)c1cccc(C(=O)NCCOCCOCCOCCOCCNC(=O)CCCC[C@@H]2SC[C@@H]3NC(=O)N[C@@H]32)c1)C(=O)N1CCC(c2ccc(Cl)cc2)CC1` [Compound 2, N1-((R)-1-(4-(4-chlorophenyl)piperidin-1-yl)-3-methyl-1-oxobutan-2-yl)-N3-(16-oxo-20-((3aS,4S,6aR)-2-oxohexahydro-1H-thieno[3,4-d]imidazol-4-yl)-3,6,9,12-tetraoxa-15-azaicosyl)isophthalamide] as the compound, how does the EC50 (CCR1) read?
**A.** 100 to 1000 nM

**Q.** What about the ADCC efficacy (CCR1) of the same compound?
**A.** ++^d (between 9-11 = ++)

**Q.** What does the source list for `CC(C)[C@@H](NC(=O)c1cccc(C(=O)NCCOCCOCCOCCOCCC(=O)NCCOCCOCCOCCOCCOCCOCCOCCOCCOCCOCCOCCNC(=O)CCCC[C@@H]2SC[C@@H]3NC(=O)N[C@@H]32)c1)C(=O)N1CCC(c2ccc(Cl)cc2)CC1` [Compound 4, N1-((R)-1-(4-(4-chlorophenyl)piperidin-1-yl)-3-methyl-1-oxobutan-2-yl)-N3-(15,53-dioxo-57-((3aS,4S,6aR)-2-oxohexahydro-1H-thieno[3,4-d]imidazol-4-yl)-3,6,9,12,19,22,25,28,31,34, 37,40,43,46,49-pentadecaoxa-16,52-diazaheptapentacontyl)isophthalamide]?
**A.** EC50 (CCR1): 100 to 1000 nM; ADCC efficacy (CCR1): ++^d (between 9-11 = ++)

**Q.** Which results are given for `CC(C)(C)N1CCNC(C(=O)N2CCN(C(=O)Nc3nc(C(F)(F)F)c(Cl)s3)C(CCOC(=O)NCCOCCOCCOCCOCCOCCOCCOCCOCCOCCNc3ccc([N+](=O)[O-])cc3[N+](=O)[O-])C2)C1` (mixture of isomers) [Compound 18, 2-(4-(4-(Tert-butyl)piperazine-2-carbonyl)-1-((5-chloro-4-(trifluoromethyl)thiazol-2-yl)carbamoyl)piperazin-2-yl)ethyl (29-((2,4-dinitrophenyl)amino)-3,6,9,12,15,18,21,24,27-nonaoxanonacosyl)carbamate]?
**A.** EC50 (CCR2; [1]): < 1 nM; ADCC efficacy (CCR2; [2]): +++^e (Maximum Signal:Background > 10 = +++); efficacy signal (CCR3; ADCC reporter assay): robust; potency (CCR3; ADCC reporter assay): nanomolar range

**Q.** Which results are given for `CCCCN1C(=O)[C@@H]([C@H](O)C2CCCCC2)NC(=O)C12CCN(Cc1ccc(Oc3ccc(C(=O)NCCOCCOCCOCCOCCOCCOCCOCCOCCOCCNC(=S)Nc4ccc5c(c4)C(=O)OC54c5ccc(O)cc5Oc5cc(O)ccc54)cc3)cc1)CC2` [Compound 25, 4-(4-(((R)-1-butyl-3-((R)-cyclohexyl(hydroxy)methyl)-2,5-dioxo-1,4,9-triazaspiro[5.5]undecan-9-yl)methyl)phenoxy)-N-(1-((3′,6′-dihydroxy-3-oxo-3H-spiro[isobenzofuran-1,9′-xanthen]-5-yl)amino)-1-thioxo-5,8,11,14,17,20,23,26,29-nonaoxa-2-azahentriacontan-31-yl)benzamide]?
**A.** EC50 (CCR3): 1 to 10 nM; ADCC efficacy (CCR3): +++^f (Maximum S:B > 20 = +++)

**Q.** How did the EC50 (CCR1) turn out when `CC(C)[C@@H](NC(=O)c1cccc(C(=O)NCCOCCOCCOCCOCCOCCOCCOCCNC(=O)CCCC[C@@H]2SC[C@@H]3NC(=O)N[C@@H]32)c1)C(=O)N1CCC(c2ccc(Cl)cc2)CC1` [Compound 3, N1-((R)-1-(4-(4-chlorophenyl)piperidin-1-yl)-3-methyl-1-oxobutan-2-yl)-N3-(25-oxo-29-((3aS,4S,6aR)-2-oxohexahydro-1H-thieno[3,4-d]imidazol-4-yl)-3,6,9,12,15,18,21-heptaoxa-24-azanonacosyl)isophthalamide] was run?
**A.** 10 to 100 nM

**Q.** And the ADCC efficacy (CCR1)?
**A.** ++^d (between 9-11 = ++)
